Reference: publication PMC11448925, “Crystal structure of guanosine 5′-monophosphate synthetase from the thermophilic bacterium Thermus thermophilus HB8” (Acta Crystallographica Section F: Structural Biology …, 2024)

B1: Guanosine 5′-monophosphate (GMP) synthetase (GuaA) from Thermus thermophilus HB8 (enzyme, Thermus thermophilus (strain HB8))
chain: MVLVLDFGSQYTRLIARRLRELRAFSLILPGDAPLEEVLKHRPQALILSGGPRSVFDPDAPRPDPRLFSSGLPLLGICYGMQLLAQELGGRVERAGRAEYGKALLTRHEGPLFRGLEGEVQVWMSHQDAVTAPPPGWRVVAETEENPVAAIASPDGRAYGVQFHPEVAHTPKGMQILENFLELAGVKRDWTPEHVLEELLREVRERAGKDRVLLAVSGGVDSSTLALLLAKAGVDHLAVFVDHGLLRLGEREEVEGALRALGVNLLVVDAKERFLKALKGVEDPEEKRKIIGREFVAAFSQVARERGPFRFLAQGTLYPDVIESAGGHGAAKIKSHHNVGGLPEDLEFELLEPFRLLFKDEVRELALLLGLPDTLRLRHPFPGPGLAVRVLGEVTEERLEILRRADDIFTSLLREWGLYEKVAQALAVLTPVRSVGVAGDERKYGYVLALRAVTTEDFMTADWARLPLEFLDEAARRITRRVPEIGRVVYDLTSKPPATIEWE
notes: GMP synthetase (GuaA), Thermus thermophilus HB8, gene TTHA1552; The apo structure (2ywb) was solved with native protein; the XMP complex (2ywc) was solved from selenomethionyl protein crystals; No tag is stated for the construct; also called TtGuaA; TTHA1552

Experiments:
[1] = target: T1, TtGuaA (GMP synthetase, GuaA) (Thermus thermophilus, UniProt Q5SI28); assay: X-ray crystallography, […] Å; assay type: binding; details: co-crystal with 10 mM XMP, pH 4.4, 20 °C; site between ATPPase and dimerization domains
T1 construct: full length, 503 residues, no tag; pET-11a in E. coli Rosetta(DE3); selenomethionyl crystals for the XMP complex; homodimer
T1 sequence (Q5SI28 1-503): B1 chain

[2] = target: the molecule itself; assay: SEC; size-exclusion chromatography of purified TtGuaA; conditions of the estimate not told

Molecule	X-ray crystallography, 2.20 Å [1]	stoichiometry N [2]
O=c1[nH]c(=O)c2ncn([C@@H]3O[C@H](COP(=O)(O)O)[C@@H](O)[C@H]3O)c2[nH]1 [XMP]	In TtGuaA–XMP, one XMP molecule was bound to each monomer.	–
B1	–	2
